# Reference: PubChem BioAssay AID1626 (SRMLSC, 2009)
# System: M. tuberculosis H37Rv growth inhibition
# Test: M. tuberculosis H37Rv growth inhibitors, H37Rv strain (AID 1626)
# Conditions: for IC90: measured here: IC90 against H37Rv; for CC50: measured here: Vero cell cytotoxicity
SMILES,IC50 [µM],IC90 [µM],CC50 [µM]
COC(=O)CCSc1cc(NCCOC(C)=O)c([N+](=O)[O-])c2nonc12,16.1,40.3,
CC1=Nc2ccccc2/C1=C/c1sc(=N)n(-c2nccs2)c1O,< 0.195,< 0.195,14.3
CC1CCN(c2nc(-c3ccncc3)nc3ccccc23)CC1,4.62,6.52,> 40
Cc1c(CN2CCC(CO)(CCOc3ccccc3)CC2)[nH]c2ccc(Cl)cc12,4.57,5.33,15.6
Cn1c(-c2ccccc2)cc2c3no[n+]([O-])c3ccc21,< 0.195,0.445,2.6
CCOC(=O)C1CCCc2c1[nH]c1c(C(N)=O)cccc21 (stereo not given),3.38,29.1,
CCOC(=O)c1c(NC(=O)C2COc3ccccc3O2)sc2c1CC(C)(C)NC2(C)C (stereo not given),12.6,13.7,
O=C(/C=C/Sc1ccccc1)c1ccc(Cl)cc1,6.43,11.2,26.1
CCCOC(=O)c1ccc(NC(=O)/C=C/c2cccs2)cc1,4.12,21.8,
CCOc1ccc(NC(C)c2cc(Cl)ccc2O)cc1 (stereo not given),10.5,> 100,
O=C(Nc1ccc(CN2CCOCC2)cc1)c1ccc(-c2ccc(Br)cc2)o1,7.09,13.2,32
Cc1cc(NC2CCCCC2)nc(NCc2ccccc2)n1,10.3,13.2,18.2
O=C(NCc1nnc2c3ccccc3c(-c3ccccc3)nn12)c1ccc(Cl)cc1,3.04,3.32,> 40
CCOC(=O)c1c(NC(=O)COc2ccccc2)sc2c1CC(C)(C)NC2(C)C,20.1,26.8,> 40
CCOC(=O)c1ccc(NCc2nc3ccccc3[nH]2)cc1,43.5,> 100,
COc1ccc(C(=O)CSc2nc(-c3ccccn3)nc(C)c2Cl)cc1,6.11,6.84,> 40
N#Cc1ccc(/C=C/C(=O)c2ccc3c(c2)OCO3)cc1,,> 100,
Cc1ccc(NC(=O)c2ccc(CSc3nccc(C)n3)cc2)cc1,12.2,> 100,
O=Cc1ccc2noc(-c3ccc(F)cc3)c2c1,,> 100,
O=C(COc1ccc(Cl)cc1)Nc1ccc(Cc2ccncc2)cc1,5.95,12.4,
O=C(Nc1nc(-c2ccc(-c3ccccc3)cc2)cs1)c1cnccn1,,> 100,> 40

SMILES,IC50 [µM],IC90 [µM],CC50 [µM]
O=C(CSc1ccc(-c2ccccn2)nn1)c1ccc(F)cc1,22.2,36,
CCSCc1nnc(SCC(=O)Nc2cccc(SC)c2)n1C,43.5,> 100,
CCOC(=O)Cn1c2c(c(-c3ccccc3OC)cc1=O)CCCC2,21.1,> 100,
O=C(COC(=O)/C=C/c1nc2ccccc2s1)Nc1cccc(Cl)c1Cl,,> 100,
COC(=O)CSc1cc(SCC(=O)OC)c(C#N)c(SCC(=O)OC)c1,0.785,2.61,
COc1ccc(N=C2C(=O)Nc3ccccc32)cc1,,> 100,
CCC(C)NC(=O)c1c(N)n(/N=C/c2ccccn2)c2nc3ccccc3nc12 (stereo not given),5.18,7.46,> 40
COc1ccc(NC(=O)CSC2=C(C#N)C(c3ccco3)C(C(=O)Nc3nc4ccccc4s3)=C(C)N2)cc1 (stereo not given),14,> 100,> 40
COc1ccc(NC(=O)N2CCN(c3nc(-c4cccc(OC)c4)cs3)CC2)cc1,9.47,> 100,> 40
CCOc1ccc(-c2cc(CCCC(=O)Nc3cccc(OC)c3)no2)cc1,10.7,> 100,> 40
CN(C)CCCN(C(=O)CCc1ccccc1)c1nc2ccc(Br)cc2s1,22.5,24.2,16.7
CCN1CCN(c2cc(C(C)(C)C)nc3c(-c4ccccc4)c(C)nn23)CC1,3.6,5.63,30.6
O=C(Nc1cccnc1)c1cc2cc(Br)ccc2oc1=O,,> 100,
CCOc1ccc(NCC(=O)Nc2ccc(C)cc2C)cc1,62.4,> 100,
CCOC(=O)c1cccc(N/C=C/C(=O)c2ccc(OC)c(OC)c2)c1,24,> 100,
COC(=O)CSc1nc(N)c2c3c(sc2n1)C(c1ccccc1)SC(c1ccccc1)C3 (stereo not given),14.4,> 100,7.1
COc1ccc(C(=O)Nc2cc(OC)c(NC(=O)c3ccco3)cc2OC)cc1,2.85,9.59,
COC(=O)c1cc(/C=C/c2ccccc2)on1,1.33,> 100,
CCOc1ccc(N2CC(=O)Nc3ccccc3NCC2=O)cc1,12.5,> 100,
CC(C)(C)NC(=O)COC(=O)c1snc(C(=O)NC2CCCCC2)c1N,1.84,3.78,> 40
CN(c1ccccc1)c1nc(N2CCCC2)nc(-n2ccnc2)n1,3.05,3.54,> 40

SMILES,IC50 [µM],IC90 [µM],CC50 [µM]
CCCCCCCCn1c2c(c(=N)c3ccccc31)CCC2,6.24,9.17,9.55
CCn1c(COc2cccc3ccccc23)nnc1SCC(=O)OC1CCCCC1,4.04,14.1,
O=c1oc(/C=C/c2ccccc2)nc2ccccc12,12.7,> 100,
COc1cnc(-c2ccccn2)nc1Sc1ccccc1,2.66,4.96,8.62
CCc1c(O)nc(SCC(=O)Nc2ccc3c(c2)CCC3)[nH]c1=O,57.4,> 100,
c1ccc(CCCN2CCN(CCOC(c3ccccc3)c3ccccc3)CC2)cc1,5.22,5.82,> 40
CCCn1c(NC(=O)C23CC4CC(CC(O)(C4)C2)C3)nc2ccccc21,11.1,> 100,> 40
COc1ccc(-c2ccnc3nc(N4CCN(c5ccccc5)CC4)nn23)cc1,14.9,> 100,> 40
Cc1ccc(NCCC(=O)c2cccs2)cc1,24.8,32.7,
Cc1cc(NC(=O)c2c(F)cccc2F)n(-c2nc3ccccc3[nH]2)n1,11.3,21.2,35.7
O=C(c1ccc2c(c1)[nH]c(=S)n1c3ccccc3nc21)N1CCN(c2cccc(Cl)c2)CC1,4.39,32.3,26.5
CCOC(=O)c1c(C)n(-c2ccc(C)cc2)c2ccc(OCC(O)CNCCCO)cc12 (stereo not given),20.3,37.1,13
Cc1cc(C)n(-c2nc(NC(C)(C)C)nc(NC(C)(C)C)n2)n1,< 0.195,21,> 40
Cc1cc(C)c2c(n1)sc1c(N3CCCCC3)ncnc12,16.7,> 100,
Cc1cccc(Oc2ccc(N)cc2)c1,,> 100,
CCOC(=O)CNc1ccc(C(=O)OCC)cc1[N+](=O)[O-],3.23,> 100,
CCOC(=O)c1cnc(-n2nc(C)cc2C)nc1Nc1ccc(N(C)C)cc1,< 0.195,< 0.195,23.9
CCOC(=O)c1nc2sc3c(c2c(=O)[nH]1)CCC(C)C3 (stereo not given),10.4,> 100,
C=CCOc1ccc(CN(C)Cc2nc3cc(C(F)(F)F)ccc3c(=O)[nH]2)cc1,12.4,> 100,
